This passage reports melting point results from patent publication US20050032873A1, “3-Amino chroman and 2-amino tetralin derivatives” (Wyeth, priority 2003, published 2005).

Usually melting point stands for the temperature, or range, at which the solid turns liquid.

Where a name gives a salt, the structure may show the parent alone.

In the case of `CCN(CCCc1c[nH]c2ccc(F)cc12)C1COc2c(F)ccc(C(=O)NC)c2C1` (stereo not shown) (as salt: hydrochloride) [Compound 89, 3-{ethyl[3-(5-fluoro-1H-indol-3-yl)propyl]amino}-8-fluoro-N-methylchromane-5-carboxamide], the melting point was 118 °C (dec.). On to `CCCN(CCCc1c[nH]c2ccc(F)cc12)C1COc2c(F)ccc(C(=O)NC)c2C1` (stereo not shown) (as salt: hydrochloride) [Compound 90, 8-fluoro-3-[[3-(5-fluoro-1H-indol-3-yl)propyl](propyl)amino]-N-methylchromane-5-carboxamide], for which the melting point was 123 °C (dec.). For the compound `CNC(=O)c1ccc(F)c2c1CC(N(CCCc1c[nH]c3ccc(F)cc13)CC1CC1)CO2` (stereo not shown) (as salt: hydrochloride) [Compound 91, 3-{(cyclopropylmethyl)[3-(5-fluoro-1H-indol-3-yl)propyl]amino}-8-fluoro-N-methylchromane-5-carboxamide], the melting point is 120 °C (dec.). On to `CNC(=O)c1ccc(F)c2c1CC(NCCCCc1c[nH]c3ccc(F)cc13)CO2` (stereo not shown) (as salt: hydrochloride) [Compound 92, 8-fluoro-3-{[4-(5-fluoro-1H-indol-3-yl)butyl]amino}-N-methylchromane-5-carboxamide], for which the melting point is 130 °C (dec.). In the case of `CCCN(CCCCc1c[nH]c2ccc(F)cc12)C1COc2c(F)ccc(C(=O)NC)c2C1` (stereo not shown) (as salt: hydrochloride) [Compound 93, 8-fluoro-3-[[4-(5-fluoro-1H-indol-3-yl)butyl](propyl)amino]-N-methylchromane-5-carboxamide], the melting point is 110 °C (dec.). Turning to `CNC(=O)c1ccc(F)c2c1CC(N(CCCCc1c[nH]c3ccc(F)cc13)CC1CC1)CO2` (stereo not shown) (as salt: hydrochloride) [Compound 94, 3-{(cyclopropylmethyl)[4-(5-fluoro-1H-indol-3-yl)butyl]amino}-8-fluoro-N-methylchromane-5-carboxamide], the melting point was 112 °C (dec.). To `CNC(=O)c1ccc(F)c2c1CC(N(CCCCc1c[nH]c3ccc(F)cc13)C1CCC1)CO2` (stereo not shown) (as salt: hydrochloride) [Compound 95, 3-{cyclobutyl[4-(5-fluoro-1H-indol-3-yl)butyl]amino}-8-fluoro-N-methylchromane-5-carboxamide] belongs 123 °C (dec.); to `N#Cc1ccc2[nH]cc(CCCN(C3CCC3)[C@@H]3COc4c(F)ccc(C(N)=O)c4C3)c2c1` (as salt: hydrochloride) [Compound 97a, (3S)-3-[[3-(5-cyano-1H-indol-3-yl)propyl](cyclobutyl)amino]-8-fluorochromane-5-carboxamide], 170 to 177 °C (dec.); to `N#Cc1ccc2[nH]cc(CCCN(C3CCC3)[C@H]3COc4c(F)ccc(C(N)=O)c4C3)c2c1` (as salt: hydrochloride) [Compound 97b, (3R)-3-[[3-(5-cyano-1H-indol-3-yl)propyl](cyclobutyl)amino]-8-fluorochromane-5-carboxamide], 166 to 171 °C (dec.). For `N#Cc1ccc2[nH]cc(CCCN(CC3CC3)[C@H]3COc4c(F)ccc(C(N)=O)c4C3)c2c1` (as salt: hydrochloride) [Compound 98b, (3R)-3-[[3-(5-cyano-1H-indol-3-yl)propyl](cyclopropylmethyl)amino]-8-fluorochromane-5-carboxamide], the melting point was 160 to 167 °C (dec.).

With `COc1cccc2c(CCCNC3COc4c(F)ccc(C(N)=O)c4C3)c[nH]c12` (stereo not shown) (as salt: hydrochloride) [Compound 99, 8-fluoro-3-{[3-(7-methoxy-1H-indol-3-yl)propyl]amino}chromane-5-carboxamide], the melting point fell in the range of 196 to 198 °C.

Take `CCCN(CCCc1c[nH]c2c(OC)cccc12)C1COc2c(F)ccc(C(N)=O)c2C1` (stereo not shown) (as salt: hydrochloride) [Compound 100, 8-fluoro-3-[[3-(7-methoxy-1H-indol-3-yl)propyl](propyl)amino]chromane-5-carboxamide]: the melting point is 158 to 164 °C (dec.). Regarding `CCN(CCCc1c[nH]c2c(OC)cccc12)C1COc2c(F)ccc(C(N)=O)c2C1` (stereo not shown) (as salt: hydrochloride) [Compound 101, 3-{ethyl[3-(7-methoxy-1H-indol-3-yl)propyl]amino}-8-fluorochromane-5-carboxamide], the melting point was 148 to 153 °C (dec.). Regarding `COc1cccc2c(CCCN(C3CCC3)C3COc4c(F)ccc(C(N)=O)c4C3)c[nH]c12` (stereo not shown) (as salt: hydrochloride) [Compound 102, 3-{cyclobutyl[3-(7-methoxy-1H-indol-3-yl)propyl]amino}-8-fluorochromane-5-carboxamide], the melting point was 156 to 162 °C (dec.). As for `COc1cccc2c(CCCN(CC3CC3)C3COc4c(F)ccc(C(N)=O)c4C3)c[nH]c12` (stereo not shown) (as salt: hydrochloride) [Compound 103, 3-{(cyclopropylmethyl)[3-(7-methoxy-1H-indol-3-yl)propyl]amino}-8-fluorochromane-5-carboxamide], the melting point is 152 to 158 °C (dec.). With `COc1ccc2[nH]cc(CCCNC3COc4c(F)ccc(C(N)=O)c4C3)c2c1` (stereo not shown) (as salt: hydrochloride) [Compound 104, 8-fluoro-3-{[3-(5-methoxy-1H-indol-3-yl)propyl]amino}chromane-5-carboxamide], the melting point is 171 to 176 °C (dec.). Take `CCN(CCCc1c[nH]c2ccc(OC)cc12)C1COc2c(F)ccc(C(N)=O)c2C1` (stereo not shown) (as salt: hydrochloride) [Compound 105, 3-{ethyl[3-(5-methoxy-1H-indol-3-yl)propyl]amino}-8-fluorochromane-5-carboxamide]: the melting point was 154 to 162 °C (dec.).

As for `CCCN(CCCc1c[nH]c2ccc(OC)cc12)C1COc2c(F)ccc(C(N)=O)c2C1` (stereo not shown) (as salt: hydrochloride) [Compound 106, 8-fluoro-3-[[3-(5-methoxy-1H-indol-3-yl)propyl](propyl)amino]chromane-5-carboxamide], the melting point was 145 to 152 °C (dec.). For `COc1ccc2[nH]cc(CCCN(C3CCC3)C3COc4c(F)ccc(C(N)=O)c4C3)c2c1` (stereo not shown) (as salt: hydrochloride) [Compound 107, 3-{cyclobutyl[3-(5-methoxy-1H-indol-3-yl)propyl]amino}-8-fluorochromane-5-carboxamide], the melting point is 151 to 158 °C (dec.). On to `COc1ccc2[nH]cc(CCCN(CC3CC3)C3COc4c(F)ccc(C(N)=O)c4C3)c2c1` (stereo not shown) (as salt: hydrochloride) [Compound 108, 3-{(cyclopropylmethyl)[3-(5-methoxy-1H-indol-3-yl)propyl]amino}-8-fluorochromane-5-carboxamide], for which the melting point was 148 to 154 °C (dec.). Take `NC(=O)c1ccc(F)c2c1CC(NCCCc1c[nH]c3c(Cl)cccc13)CO2` (stereo not shown) (as salt: hydrochloride) [Compound 109, 3-{[3-(7-chloro-1H-indol-3-yl)propyl]amino}-8-fluorochromane-5-carboxamide]: the melting point was in the range of 222 to 224 °C. In the case of `CCN(CCCc1c[nH]c2c(Cl)cccc12)C1COc2c(F)ccc(C(N)=O)c2C1` (stereo not shown) (as salt: hydrochloride) [Compound 110, 3-[[3-(7-chloro-1H-indol-3-yl)propyl](ethyl)amino]-8-fluorochromane-5-carboxamide], the melting point was 146 to 152 °C (dec.). As for `NC(=O)c1ccc(F)c2c1CC(N(CCCc1c[nH]c3c(Cl)cccc13)C1CCC1)CO2` (stereo not shown) (as salt: hydrochloride) [Compound 111, 3-[[3-(7-chloro-1H-indol-3-yl)propyl](cyclobutyl)amino]-8-fluorochromane-5-carboxamide], the melting point is 154 to 163 °C (dec.).

Take `NC(=O)c1ccc(F)c2c1CC(N(CCCc1c[nH]c3c(Cl)cccc13)CC1CC1)CO2` (stereo not shown) (as salt: hydrochloride) [Compound 112, 3-[[3-(7-chloro-1H-indol-3-yl)propyl](cyclopropylmethyl)amino]-8-fluorochromane-5-carboxamide]: the melting point is 147 to 155 °C (dec.).

As for `CCCN(CCCc1c[nH]c2c(Cl)cccc12)C1COc2c(F)ccc(C(N)=O)c2C1` (stereo not shown) (as salt: hydrochloride) [Compound 113, 3-[[3-(7-chloro-1H-indol-3-yl)propyl](propyl)amino]-8-fluorochromane-5-carboxamide], the melting point is 145 to 154 °C (dec.).

`NC(=O)c1ccc(F)c2c1CC(NCCCc1c[nH]c3ccc(Cl)cc13)CO2` (stereo not shown) (as salt: hydrochloride) [Compound 114, 3-{[3-(5-chloro-1H-indol-3-yl)propyl]amino}-8-fluorochromane-5-carboxamide] came in with a melting point of 218 to 221 °C. `CCN(CCCc1c[nH]c2ccc(Cl)cc12)C1COc2c(F)ccc(C(N)=O)c2C1` (stereo not shown) (as salt: hydrochloride) [Compound 115, 3-[[3-(5-chloro-1H-indol-3-yl)propyl](ethyl)amino]-8-fluorochromane-5-carboxamide]: the melting point was 149 to 156 °C (dec.). In the case of `CCCN(CCCc1c[nH]c2ccc(Cl)cc12)C1COc2c(F)ccc(C(N)=O)c2C1` (stereo not shown) (as salt: hydrochloride) [Compound 116, 3-[[3-(5-chloro-1H-indol-3-yl)propyl](propyl)amino]-8-fluorochromane-5-carboxamide], the melting point was 148 to 154 °C (dec.). On to `NC(=O)c1ccc(F)c2c1CC(N(CCCc1c[nH]c3ccc(Cl)cc13)C1CCC1)CO2` (stereo not shown) (as salt: hydrochloride) [Compound 117, 3-[[3-(5-chloro-1H-indol-3-yl)propyl](cyclobutyl)amino]-8-fluorochromane-5-carboxamide], for which the melting point was 152 to 160 °C (dec.).

In the case of `NC(=O)c1ccc(F)c2c1CC(N(CCCc1c[nH]c3ccc(Cl)cc13)CC1CC1)CO2` (stereo not shown) (as salt: hydrochloride) [Compound 118, 3-[[3-(5-chloro-1H-indol-3-yl)propyl](cyclopropylmethyl)amino]-8-fluorochromane-5-carboxamide], the melting point was 150 to 158 °C (dec.). The result for `NC(=O)c1ccc(F)c2c1OCC(NCCCc1c[nH]c3ccc(F)cc13)C2` (stereo not shown) (as salt: hydrochloride) [Compound 119, 5-fluoro-3-{[3-(5-fluoro-1H-indol-3-yl)propyl]amino}chromane-8-carboxamide] reads 124 °C (dec.).
